The structures appear in SMILES notation.

The subject of assay [1] is IFNγ-induced STAT1 phosphorylation (pSTAT1) in B16F10 cells. Kind of assay: B16F10 Phospho-STAT1 HTRF proximal pharmacodynamic (PD) assay. It counts as cell-based, murine. Conditions: B16-F10; B16F10 cells, 3 hours compound, 100 nM mouse IFNγ 10 minutes; read-out: B16F10 IFNγ Induced pSTAT1 EC50. In short, it runs like this:
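B16F10 cells in phenol red-free DMEM/10% FBS were dosed for 3 h at 37 °C in a 10-point, 3-fold series from 50 μM, then stimulated with 100 nM mouse IFNγ for 10 min and stopped with 3.3 μM staurosporine. pSTAT1 in lysates was measured by HTRF (665 nm emission), and EC50s were fitted from dose-response curves.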

For assay [2], the target named is His tagged PTPN2 (TC45) protein (Homo sapiens (Human), UniProt P17706). As to the kind of experiment: PTPN2 Mobility Shift Assay (MSA). Type of assay: biochemical. Conditions: enzyme 0.5 nM, substrate 2 μM. In short, it runs like this:
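His-tagged human PTPN2 (TC45), 0.5 nM, preincubated with compound (12-point, 1:3) 10 min at room temperature in HEPES pH 7.5 buffer with EDTA, EGTA, DTT. Dephosphorylation of 2 μM fluorescent phospho-insulin-receptor peptide over 10 min read by mobility shift; IC50 from % inhibition.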

Assay [3] concerns the target His tagged full-length PTPN1 protein (Homo sapiens (Human), UniProt P18031). As to the kind of experiment: PTPN1 Mobility Shift Assay (MSA). Particulars: enzyme 0.5 nM, substrate 2 μM. Type of assay: biochemical. In short, it runs like this:
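Enzyme at 0.5 nM was preincubated with compound (12-point, 1:3 dilution) for 10 min at room temperature in pH 7.5 HEPES buffer with EDTA, EGTA and DTT. OG488-labelled phosphorylated insulin-receptor peptide at 2 µM was then added for 10 min. After quench, % substrate dephosphorylation was read by mobility shift, and IC50 came from % inhibition.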

Sequence of His tagged full-length PTPN1 protein (P18031 whole entry): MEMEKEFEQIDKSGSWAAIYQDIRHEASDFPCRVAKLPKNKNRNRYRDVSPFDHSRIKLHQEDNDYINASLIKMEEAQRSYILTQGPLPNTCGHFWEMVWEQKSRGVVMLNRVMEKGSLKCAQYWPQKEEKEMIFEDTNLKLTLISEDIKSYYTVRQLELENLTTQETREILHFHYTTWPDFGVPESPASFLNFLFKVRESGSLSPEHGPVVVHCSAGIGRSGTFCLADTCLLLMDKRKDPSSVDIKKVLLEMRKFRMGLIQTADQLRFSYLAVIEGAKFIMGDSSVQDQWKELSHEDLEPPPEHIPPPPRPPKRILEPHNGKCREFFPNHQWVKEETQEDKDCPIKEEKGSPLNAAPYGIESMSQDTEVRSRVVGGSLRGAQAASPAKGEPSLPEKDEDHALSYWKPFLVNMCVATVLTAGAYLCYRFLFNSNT
Sequence of His tagged PTPN2 (TC45) protein (P17706 other isoform, or with tags, fused parts or gaps): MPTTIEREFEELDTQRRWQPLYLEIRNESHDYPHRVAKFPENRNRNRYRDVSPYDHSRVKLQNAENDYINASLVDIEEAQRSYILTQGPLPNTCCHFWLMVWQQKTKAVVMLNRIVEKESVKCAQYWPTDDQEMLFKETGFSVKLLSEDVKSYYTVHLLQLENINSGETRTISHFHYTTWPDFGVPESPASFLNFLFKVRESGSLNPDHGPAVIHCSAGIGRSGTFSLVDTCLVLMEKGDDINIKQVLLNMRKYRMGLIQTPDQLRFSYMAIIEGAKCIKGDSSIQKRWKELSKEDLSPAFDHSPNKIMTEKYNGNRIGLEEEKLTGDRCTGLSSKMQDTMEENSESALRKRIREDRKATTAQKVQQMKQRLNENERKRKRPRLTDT

Regarding `O=C1CN(c2c(O)cc3c(c2F)C[C@H](CNCC2CC2)O3)S(=O)(=O)N1` [Compound 117, 5-[(2R)-2-{[(cyclopropylmethyl)amino]methyl}-4-fluoro-6-hydroxy-2,3-dihydro-1-benzofuran-5-yl]-1λ^6,2,5-thiadiazolidine-1,1,3-trione], in assay [1], the EC50 amounted to 818 nM. Also, the IC50 in assay [2] and in assay [3] was 10 to 100 nM each time.
As for `CCCN(CCC)C[C@H]1Cc2c(cc(O)c(N3CC(=O)NS3(=O)=O)c2F)O1` [Compound 110, 5-{(2R)-2-[(dipropylamino)methyl]-4-fluoro-6-hydroxy-2,3-dihydro-1-benzofuran-5-yl}-1λ^6,2,5-thiadiazolidine-1,1,3-trione], the EC50 in assay [1] stood at 18000 nM. In addition, the 50% inhibitory concentration (IC50) in assay [2] and in assay [3] was 10 to 100 nM each time.
For `O=C1CN(c2c(O)cc3c(c2F)C[C@H](CNCC2CCCC2)O3)S(=O)(=O)N1` [Compound 113, 5-[(2R)-2-{[(cyclopentylmethyl)amino]methyl}-4-fluoro-6-hydroxy-2,3-dihydro-1-benzofuran-5-yl]-1λ^6,2,5-thiadiazolidine-1,1,3-trione], the 50% effective concentration (EC50) in assay [1] is 770 nM. The half-maximal inhibitory concentration (IC50) in assay [2] and in assay [3] was 10 to 100 nM in each case.

What is called EC50 is the concentration that produces a half-maximal response. A word on the IC50: it is the concentration needed to halve the response being measured.

The record behind these values is patent US20250019374A1, “PROTEIN TYROSINE PHOSPHATASE INHIBITORS AND METHODS OF USE THEREOF” (Calico Life Sciences LLC, priority 2021, published 2025).
